This is an account of results in patent US12577242B2, “Pyrrolopyridine and imidazopyridine antiviral compounds” (KATHOLIEKE UNIVERSITEIT LEUVEN, priority 2020, dated 2026).

The term EC50 denotes the concentration needed to bring the measured effect to its halfway point. Low values mean an effect from little substance, high ones a need for much substance. Usually CC50 stands for the concentration that lowers cell viability or growth by half. The low end stands for greater toxicity to the cells, the high end for lower toxicity to the cells.

In series [1] the test system is Bovine viral diarrhea (BVD) virus. Nature of the series: Anti-BVDV CPE inhibition assay in MDBK cells. The following applies: for EC50: Bovine viral diarrhea virus isolates and strains, MDBK, in Bos taurus, 96 h; for SI (selectivity index, ratio of CC50 and EC50): CC50/EC50, MDBK cells, BVD virus.
Series [2] can be described thus: Cytotoxicity in MDBK cells (no BVD virus added). The following applies: bovine, MDBK cells (Madin-Darby bovine kidney), no virus added.

Take `COc1ncccc1-c1cc2ccn(Cc3nc4ccc(C)cc4s3)cc-2n1` [Compound XIV, 2-{[2-(2-methoxypyridin-3-yl)-6H-pyrrolo[2,3-c]pyridin-6-yl]methyl}-6-methyl-1,3-benzothiazole]: in series [1], the EC50 worked out at 17 nM; the “SI (selectivity index, ratio of CC50 and EC50)” value was determined as 235. Besides, the midpoint of cytotoxicity in series [2], the CC50 at 4 days, lay at 4 µM.

Consider `OCCOc1ccc(F)c(-c2cc3cn(Cn4nnc5ccccc54)ccc-3n2)c1` [Compound XIX, 2-(3-{5-[(1H-benzotriazol-1-yl)methyl]-5H-pyrrolo[3,2-c]pyridin-2-yl}-4-fluorophenoxy)ethan-1-ol], for which, in series [1], the half-maximal effective concentration (EC50) was 97 ± 15 nM; the “SI (selectivity index, ratio of CC50 and EC50)” value is greater than 515. For the same molecule, in series [2], the CC50 at 4 days is greater than 50 µM.

For `Cc1ccc2nc(Cn3ccc4cc(-c5cnn(C)c5C)nc-4c3)sc2c1` [Compound XV, 2-{[2-(1,5-dimethyl-1H-pyrazol-4-yl)-6H-pyrrolo[2,3-c]pyridin-6-yl]methyl}-6-methyl-1,3-benzothiazole], in series [1], the EC50 stood at 16 ± 1 nM; the “SI (selectivity index, ratio of CC50 and EC50)” value was 1063. The molecule further gave a CC50 at 4 days in series [2] of 17 µM.

Consider `Cc1ccc2nc(Cn3ccc4cc(-c5ccccc5CO)nc-4c3)[nH]c2c1` [Compound XVI, (2-(6-((6-methyl-1H-benzoimidazol-2-yl)methyl)-6H-pyrrolo[2,3-c]pyridin-2-yl)phenyl)methanol], for which, in series [1], a half-maximal effect (EC50) was put at 294 ± 70 nM; the “SI (selectivity index, ratio of CC50 and EC50)” value is reported as 75. This molecule also came in with a 50% cytotoxic concentration (CC50) at 4 days in series [2] of 22 µM.

For the molecule `Fc1ccccc1-c1cc2cn(Cn3nnc4ccccc43)ccc-2n1` [Compound XVII, 1-{[2-(2-fluorophenyl)-5H-pyrrolo[3,2-c]pyridin-5-yl]methyl}-1H-benzotriazole], in series [1], the EC50 amounted to 12 ± 6 nM; the “SI (selectivity index, ratio of CC50 and EC50)” value worked out at 1583. Moreover, the CC50 at 4 days in series [2] turned out to be 19 µM.

`Fc1ccc(OC(F)(F)F)cc1-c1cc2cn(Cn3nnc4ccccc43)ccc-2n1` [Compound XVIII, 1-({2-[2-fluoro-5-(trifluoromethoxy)phenyl]-5H-pyrrolo[3,2-c]pyridin-5-yl}methyl)-1H-benzotriazole]: in series [1], a half-maximal response (EC50) required 76 ± 19 nM; the “SI (selectivity index, ratio of CC50 and EC50)” value was determined as 158. Further, in series [2], the midpoint of cytotoxicity, the CC50 at 4 days, lay at 12 µM.

For the molecule `COc1ccccc1-c1cc2cn(Cn3nnc4ccccc43)ccc-2n1` [Compound XX, 1-{[2-(2-methoxyphenyl)-5H-pyrrolo[3,2-c]pyridin-5-yl]methyl}-1H-benzotriazole], in series [1], the EC50 amounted to 82 nM; the “SI (selectivity index, ratio of CC50 and EC50)” value is 476. In series [2], this molecule gave a half-maximal cytotoxic concentration (CC50) at 4 days of 39 µM.

As to `OCc1ccccc1-c1cc2cn(Cn3nnc4ccccc43)ccc-2n1` [Compound XXI, (2-(5-((1H-Benzotriazol-1-yl)methyl)-5H-pyrrolo[3,2-c]pyridin-2-yl)phenyl)methanol], in series [1], the midpoint of the response, the EC50, lay at 387 ± 22 nM; the “SI (selectivity index, ratio of CC50 and EC50)” value is reported as greater than 129. The molecule further came in with a CC50 at 4 days in series [2] greater than 50 µM.

Regarding `N#Cc1ccc(-c2cc3cn(Cn4nnc5ccccc54)ccc-3n2)cc1` [Compound XXII, 4-{5-[(1H-benzotriazol-1-yl)methyl]-5H-pyrrolo[3,2-c]pyridin-2-yl}benzonitrile], in series [1], the EC50 was 7 ± 5 nM; the “SI (selectivity index, ratio of CC50 and EC50)” value came out at 3000. The same molecule came in with a CC50 at 4 days in series [2] of 21 µM.

Consider `COc1ncccc1-c1cc2cn(Cn3nnc4ccccc43)ccc-2n1` [Compound XXIII, 1-((2-(2-methoxypyridin-3-yl)-5H-pyrrolo[3,2-c]pyridin-5-yl)methyl)-1H-benzotriazole], for which, in series [1], the midpoint of the response, the EC50, lay at 82 nM; the “SI (selectivity index, ratio of CC50 and EC50)” value stood at 390. Further, in series [2], it took 32 µM to reach half-maximal cytotoxicity (CC50 at 4 days).

Regarding `Cc1c(-c2cc3cn(Cn4nnc5ccccc54)ccc-3n2)cnn1C` [Compound XXIV, 1-((2-(1,5-dimethyl-1H-pyrazol-4-yl)-5H-pyrrolo[3,2-c]pyridin-5-yl)methyl)-1H-benzotriazole], in series [1], a half-maximal effect (EC50) was put at 76 ± 19 nM; the “SI (selectivity index, ratio of CC50 and EC50)” value was 158. For the same molecule, in series [2], the 50% cytotoxic concentration (CC50) at 4 days amounted to 12 µM.

With `Cc1ccc2nc(Cn3ccc4nc(-c5cc(OCCO)ccc5F)cc-4c3)sc2c1` [Compound XXIX, 2-(4-fluoro-3-(5-((6-methyl-1,3-benzothiazol-2-yl)methyl)-5H-pyrrolo[3,2-c]pyridin-2-yl)phenoxy)ethan-1-ol], in series [1], a half-maximal effect (EC50) was put at 37 ± 30 nM; the “SI (selectivity index, ratio of CC50 and EC50)” value is on record as 432. This molecule also yielded a CC50 at 4 days in series [2] of 16 µM.

As for `Cc1ccc2oc(Cn3ccc4nc(-c5ccccc5F)cc-4c3)nc2c1` [Compound XXV, 2-{[2-(2-fluorophenyl)-5H-pyrrolo[3,2-c]pyridin-5-yl]methyl}-5-methyl-1,3-benzoxazole], in series [1], the 50% effective concentration (EC50) was 4 ± 2 nM; the “SI (selectivity index, ratio of CC50 and EC50)” value was determined as 1750. Besides, the half-maximal cytotoxic concentration (CC50) at 4 days in series [2] was 7 µM.

With `Cc1ccc2oc(Cn3ccc4nc(-c5ccccc5CO)cc-4c3)nc2c1` [Compound XXVI, (2-(5-((5-methyl-1,3-benzoxazol-2-yl)methyl)-5H-pyrrolo[3,2-c]pyridin-2-yl)phenyl)methanol], in series [1], the response was half-maximal at 311 ± 78 nM (EC50); the “SI (selectivity index, ratio of CC50 and EC50)” value is given as 71. In addition, the midpoint of cytotoxicity in series [2], the CC50 at 4 days, lay at 22 µM.

Take `COc1ncccc1-c1cc2cn(Cc3nc4cc(C)ccc4o3)ccc-2n1` [Compound XXVII, 2-((2-(2-methoxypyridin-3-yl)-5H-pyrrolo[3,2-c]pyridin-5-yl)methyl)-5-methyl-1,3-benzoxazole]: in series [1], the EC50 was determined as 16 ± 1 nM; the “SI (selectivity index, ratio of CC50 and EC50)” value is given as 1313. In addition, half-maximal cytotoxicity in series [2] (CC50 at 4 days) was put at 21 µM.

Consider `Cc1ccc2nc(Cn3ccc4nc(-c5ccccc5F)cc-4c3)sc2c1` [Compound XXVIII, 2-{[2-(2-fluorophenyl)-5H-pyrrolo[3,2-c]pyridin-5-yl]methyl}-6-methyl-1,3-benzothiazole], for which, in series [1], the EC50 is 16 nM; the “SI (selectivity index, ratio of CC50 and EC50)” value is listed as 188. Further, the half-maximal cytotoxic concentration (CC50) at 4 days in series [2] came out at 3 µM.

As for `Cc1ccc2nc(Cn3ccc4nc(-c5ccccc5CO)cc-4c3)sc2c1` [Compound XXX, (2-{5-[(6-methyl-1,3-benzothiazol-2-yl)methyl]-5H-pyrrolo[3,2-c]pyridin-2-yl}phenyl)methanol], in series [1], the concentration giving a half-maximal response (EC50) came to 19 ± 7 nM; the “SI (selectivity index, ratio of CC50 and EC50)” value is 1053. Also, the midpoint of cytotoxicity in series [2], the CC50 at 4 days, lay at 20 µM.

For `COc1ncccc1-c1cc2cn(Cc3nc4ccc(C)cc4s3)ccc-2n1` [Compound XXXI, 2-{[2-(2-methoxypyridin-3-yl)-5H-pyrrolo[3,2-c]pyridin-5-yl]methyl}-6-methyl-1,3-benzothiazole], in series [1], the EC50 was determined as 6 ± 6 nM; the “SI (selectivity index, ratio of CC50 and EC50)” value is on record as 1667. In series [2], this molecule had a CC50 at 4 days of 10 µM.

In the case of `Cc1ccc2nc(Cn3ccc4nc(-c5cnn(C)c5C)cc-4c3)sc2c1` [Compound XXXII, 2-{[2-(1,5-dimethyl-1H-pyrazol-4-yl)-5H-pyrrolo[3,2-c]pyridin-5-yl]methyl}-6-methyl-1,3-benzothiazole], in series [1], it took 12 ± 8 nM to reach a half-maximal effect (EC50); the “SI (selectivity index, ratio of CC50 and EC50)” value is on record as 1750. Also, the 50% cytotoxic concentration (CC50) at 4 days in series [2] was found to be 21 µM.

For the molecule `COc1ncccc1-c1cc2cn(Cc3nc4ccc(C)cc4[nH]3)ccc-2n1` [Compound XXXIV, 2-((2-(2-methoxypyridin-3-yl)-5H-pyrrolo[3,2-c]pyridin-5-yl)methyl)-6-methyl-1H-benzoimidazole], in series [1], the EC50 is 395 ± 20 nM; the “SI (selectivity index, ratio of CC50 and EC50)” value is greater than 127. The CC50 at 4 days in series [2] is greater than 50 µM.
